In data set [1] the target is T1, CYP3A4 (Homo sapiens, UniProt P08684).
T1 construct: utilizes human liver microsomes together with isoform-specific clinical drug probes; from tissue; host or cells: human liver microsomes
Nature of the data set: High density drug-drug interactions (DDI) 3 μM cocktail screen in human liver microsomes. Format: in vitro ADME. The conditions noted are these: 3 uM test compound, pooled human liver microsomes, probe midazolam 2 μM; read-out: % Inhibition of 3A4 metabolism at 3 uM.

Data set [2] can be described thus: In vitro metabolism rate determination, rat liver microsome (RLM) assay. Format: in vitro ADME. The conditions noted are these: rat liver microsomes, substrate 1 μM; read-out: RLM (intrinsic clearance). Background: Liver microsomes are a subcellular fraction often used to study metabolism.
Data set [3] addresses MC4 receptor (Homo sapiens, UniProt P32245). Description: MC4 functional agonist potency (EC50), assay protocol E of US2005/0176772 / WO 2005/077935. In kind it is cell-based. The settings on record: functional potency at the MC4 receptor. Here is the method: The compounds of formula (I) of the present invention have utility as MCR4 agonists in the treatment of various disease states.
MC5 and MC4 EC50 activity was determined as described by assay protocols D and E, respectively, in US2005/0176772 (pages 28-30).

The structures appear in SMILES notation.

T1 sequence (P08684 whole entry, canonical isoform): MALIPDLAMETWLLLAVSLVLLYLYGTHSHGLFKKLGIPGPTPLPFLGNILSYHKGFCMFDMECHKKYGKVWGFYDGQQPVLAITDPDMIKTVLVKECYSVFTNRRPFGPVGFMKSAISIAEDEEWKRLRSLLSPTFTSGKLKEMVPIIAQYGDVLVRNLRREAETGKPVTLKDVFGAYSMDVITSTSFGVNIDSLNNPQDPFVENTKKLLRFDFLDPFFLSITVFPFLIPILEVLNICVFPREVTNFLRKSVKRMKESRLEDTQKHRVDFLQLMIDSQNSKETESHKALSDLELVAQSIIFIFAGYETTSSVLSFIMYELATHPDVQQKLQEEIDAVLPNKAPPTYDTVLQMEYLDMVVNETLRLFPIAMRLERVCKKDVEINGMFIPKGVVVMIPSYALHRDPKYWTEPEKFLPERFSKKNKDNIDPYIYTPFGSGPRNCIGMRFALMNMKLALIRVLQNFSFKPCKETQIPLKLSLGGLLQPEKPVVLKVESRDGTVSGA
Sequence of MC4 receptor (P32245 whole entry): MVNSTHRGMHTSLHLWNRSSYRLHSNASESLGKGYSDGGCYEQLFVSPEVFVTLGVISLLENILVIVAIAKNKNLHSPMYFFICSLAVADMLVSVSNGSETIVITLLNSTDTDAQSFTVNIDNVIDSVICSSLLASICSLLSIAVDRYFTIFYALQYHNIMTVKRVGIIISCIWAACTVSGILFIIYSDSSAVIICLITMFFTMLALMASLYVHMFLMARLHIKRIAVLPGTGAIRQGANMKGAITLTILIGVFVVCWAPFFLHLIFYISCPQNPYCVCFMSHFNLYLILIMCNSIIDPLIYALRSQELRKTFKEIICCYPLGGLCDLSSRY

The term inhibition denotes how much of the control response was suppressed. In general, EC50 refers to the midpoint of the concentration-response curve. A higher EC50 goes with lower potency in that assay. Consider `COc1ccc(C2(O)C(C)CN(C(=O)C3CN(c4ccc(=O)n(C)n4)CC3c3ccc(Cl)cn3)CC2C)cc1` (stereo not drawn) [Example 20], for which the inhibition at 3 μM in data set [1] turned out to be 35%. Also, the microsomal CLint at 1 μM in data set [2] stood at 51.5 µL/min/mg. Moreover, a half-maximal effect in data set [3] (EC50) was put at 16.4 nM.

On to `CC1CN(C(=O)C2CN(c3ccc(=O)n(C)n3)CC2c2ccc(Cl)cn2)CC(C)C1(O)c1ccccc1` (stereo not drawn) [Example 21], for which, in data set [1], the inhibition at 3 μM came to 25%. For the same compound, the microsomal CLint at 1 μM in data set [2] worked out at 58.5 µL/min/mg. Also, the EC50 in data set [3] is 2.81 nM.

For `C[C@@H]1CN(C(=O)[C@@H]2CN(c3ccc(=O)n(C)n3)C[C@H]2c2ccc(Cl)cn2)C[C@H](C)[C@@]1(O)c1ccccn1` [Example 22], the inhibition at 3 μM in data set [1] is 54%. Moreover, in data set [2], the microsomal CLint at 1 μM is 96 µL/min/mg. This compound registered an EC50 in data set [3] of 19.8 nM.

With `CC1CN(C(=O)C2CN(c3ccc(=O)n(C)n3)CC2c2ccc(Cl)cn2)CC(C)C1(O)c1ccc(Cl)cc1` (stereo not drawn) [Example 23], the inhibition at 3 μM in data set [1] is 35%. Further, the microsomal CLint at 1 μM in data set [2] was less than 8.5 µL/min/mg. Moreover, in data set [3], it took 4.75 nM to reach a half-maximal effect (EC50).

On to `CC1CN(C(=O)C2CN(c3cncc(F)c3)CC2c2ccc(Cl)cn2)CC(C)C1(O)C1CC1` (stereo not drawn) [Example 24], for which, in data set [1], the inhibition at 3 μM is 87%. Besides, the microsomal CLint at 1 μM in data set [2] was greater than 510 µL/min/mg. The same compound displayed an EC50 in data set [3] of 59.3 nM.

Take `CC1CN(C(=O)C2CN(c3cncc(F)c3)CC2c2ccc(Cl)cn2)CC(C)C1(O)c1ccc(F)cc1` (stereo not drawn) [Example 25]: the inhibition at 3 μM in data set [1] was determined as 16%. In data set [2], the microsomal CLint at 1 μM worked out at 172 µL/min/mg. This compound registered a concentration for a half-maximal effect (EC50) in data set [3] of 12.4 nM.

`COc1ccc(N2CC(C(=O)N3CC(C)C(O)(C4CC4)C(C)C3)C(c3ccc(Cl)cn3)C2)nn1` (stereo not drawn) [Example 26]: the inhibition at 3 μM in data set [1] stood at 61%. Moreover, the microsomal CLint at 1 μM in data set [2] was greater than 510 µL/min/mg. The same compound came in with an EC50 in data set [3] of 22.5 nM.

On to `CC1CN(C(=O)C2CN(c3ccc(=O)[nH]n3)CC2c2ccc(Cl)cn2)CC(C)C1(O)c1ccccc1` (stereo not drawn) [Example 27], for which the inhibition at 3 μM in data set [1] amounted to 64%. Also, the microsomal CLint at 1 μM in data set [2] was 31 µL/min/mg. In data set [3], this compound displayed an EC50 of 4.54 nM.

For the compound `C[C@@H]1CN(C(=O)[C@@H]2CN(c3ccc(=O)[nH]n3)C[C@H]2c2ccc(Cl)cn2)C[C@H](C)[C@@]1(O)c1ccccn1` [Example 28], in data set [1], the inhibition at 3 μM amounted to 77%. Also, in data set [2], the microsomal CLint at 1 μM was 51 µL/min/mg. The compound further gave a concentration giving a half-maximal response (EC50) in data set [3] of 24.4 nM.

On to `CC1CN(C(=O)C2CN(c3ccc(C#N)nn3)CC2c2ccc(Cl)cn2)CC(C)C1(O)c1ccccn1` (stereo not drawn) [Example 30], for which the inhibition at 3 μM in data set [1] was determined as 38%. The microsomal CLint at 1 μM in data set [2] is 69.5 µL/min/mg. Moreover, in data set [3], the response was half-maximal at 5.77 nM (EC50).

For `C[C@@H]1CN(C(=O)[C@@H]2CN(c3ccc(Cl)nn3)C[C@H]2c2ccc(Cl)cn2)C[C@H](C)[C@@]1(O)c1ccccn1` [Example 31], in data set [1], the inhibition at 3 μM came to 60%. The microsomal CLint at 1 μM in data set [2] came to 292 µL/min/mg. Besides, in data set [3], the EC50 was 22.9 nM.

With `C[C@@H]1CN(C(=O)[C@@H]2CN(c3ccc(C#N)nn3)C[C@H]2c2ccc(F)cn2)C[C@H](C)[C@@]1(O)c1ccc(Cl)cc1` [Example 32], in data set [1], the inhibition at 3 μM came out at 31%. Moreover, the microsomal CLint at 1 μM in data set [2] was less than 8.5 µL/min/mg. In data set [3], this compound came in with an EC50 of 8.78 nM.

As to `CC1CN(C(=O)C2CN(c3ccc(C#N)nn3)CC2c2ccc(F)cn2)CC(C)C1(O)c1ccccc1` (stereo not drawn) [Example 33], the inhibition at 3 μM in data set [1] came to 19%. The microsomal CLint at 1 μM in data set [2] was found to be 72 µL/min/mg. In data set [3], this compound returned an EC50 of 13.4 nM.

Turning to `C[C@@H]1CN(C(=O)[C@@H]2CN(c3ccc(Cl)nn3)C[C@H]2c2ccc(F)cn2)C[C@H](C)[C@@]1(O)c1ccccc1` [Example 35], the inhibition at 3 μM in data set [1] was 46%. In addition, in data set [2], the microsomal CLint at 1 μM was determined as 92 µL/min/mg. In data set [3], the midpoint of the response, the EC50, lay at 62.2 nM.

As for `CC1CN(C(=O)C2CN(c3ccc(=O)n(C)n3)CC2c2ccc(F)cn2)CC(C)C1(O)c1ccc(F)cc1` (stereo not drawn) [Example 40], in data set [1], the inhibition at 3 μM was found to be 64%. Further, in data set [2], the microsomal CLint at 1 μM is less than 8.5 µL/min/mg. This compound also yielded a concentration for a half-maximal effect (EC50) in data set [3] of 69.8 nM.

For `COc1ccc([C@@H]2CN(c3ccc(=O)[nH]n3)C[C@H]2C(=O)N2C[C@@H](C)[C@](O)(c3ccc(Cl)cn3)[C@@H](C)C2)nc1` [Example 41], the inhibition at 3 μM in data set [1] stood at 52%. Moreover, in data set [2], the microsomal CLint at 1 μM was determined as 30 µL/min/mg. For the same compound, in data set [3], the EC50 was found to be 655 nM.

On to `CC1CN(C(=O)C2CN(c3ccc(C#N)cn3)CC2c2ccc(C#N)cn2)CC(C)C1(O)c1ccc(F)cc1` (stereo not drawn) [Example 45], for which the inhibition at 3 μM in data set [1] was determined as 69%. Also, the microsomal CLint at 1 μM in data set [2] is less than 8.5 µL/min/mg. The EC50 in data set [3] came to 44.4 nM.

Turning to `C[C@@H]1CN(C(=O)[C@@H]2CN(c3ccc(C#N)nn3)C[C@H]2c2ccc(C#N)cn2)C[C@H](C)[C@@]1(O)c1ccc(F)cc1` [Example 46], in data set [1], the inhibition at 3 μM is 74%. Moreover, the microsomal CLint at 1 μM in data set [2] was less than 8.5 µL/min/mg. The compound further yielded a 50% effective concentration (EC50) in data set [3] of 15 nM.

The record behind these values is patent US8138188B2, “Melanocortin type 4 receptor agonist piperidinoylpyrrolidines” (Pfizer Inc., priority 2006, dated 2012).
